Entries after “also recorded” stand apart in the source; their conditions may differ.
Legend:
MUC5AC mucins = test: MUC5AC mucin secretion and production by ELISA in EpiAirway (NHBE) cultures at air/liquid interface; type: cell-based, human
Method: EpiAirway cultures (normal human bronchial epithelial) cells grown on Millipore Transwells, 1 or 4.2 cm^2 surface area. The cells were purchased from MatTek, and were cultured at air-liquid interface for two (mucus synthesis and secretion) or three (mucociliary transport and mucus rheology) weeks prior to use. GUAIFENESIN solutions were prepared by dissolving in PBS (phosphate buffered saline) immediately before treatment of the cells. MUCSAC mucins were quantified by ELISA using 45M1 antibody (Labvision, Fremont, Calif.). Confluent 1 cm^2 NHBE cells grown on an air/liquid interface were washed from the apical surface with 200 μL PBS and incubated with fresh complete growth medium added to the basal chamber. Cultures were incubated 24 hours to collect the apical fluid (pretreatment sample or PT) by adding 100 μL PBS to the apical surface of the cultures. PBS was added to dilute the highly viscous, thin mucus layer on the surface. Because of the small size of the insert, it was not feasible to collect a sufficient amount of mucus for both pharmacology and rheology without the addition of PBS. After collecting 100 μL of the diluted mucus samples (PT), cultures were divided into three groups (6 hr, 24 hr and 48 hr), 16 inserts per group, and treated with varying concentrations of guaifenesin (0, 0.2, 2, 20 μg/mL) for each time group, 4 inserts per each dose. Thus, a total of 48 inserts were used for this study (4 inserts/dose×4 doses/time point×3 time points). The apical fluid was collected at 30 minutes following drug treatment from all the cultures to see whether guaifenesin affects the “secretion” of mucins. The apical mucus sample was collected in two steps—first by adding 100 μL PBS to the apical surface (1st wash) and then by adding 100 μL PBS containing 5 mM dithiothreitol (DTT) (2nd wash). Samples from each wash were assayed for MUC5AC content and the sum of the two values (the 1st and 2nd wash) was expressed as the “released MUC5AC” of the culture. At the three different time points (i.e., 6, 24, and 48 hr), cultures were washed to collect the apical fluid as described above (“released mucin”) and lysed using a lysis buffer (PBS, pH 7.2, […], 2 mM EDTA, 1 mM PSMF and 5 mM DTT) (“cellular mucin”). The amount of mucin in each sample (either secreted, released or cell lysate) was divided by the amount of mucin in the PT sample collected from the same well in order to obtain a “secretory index” to compensate for the variations among the cultures. The treatment protocol is depicted in FIG. 1. For mucin secretion, differences between control and guaifenesin treatment groups were assessed by comparing the means using Student's t-test for unpaired samples and p<0.05 was considered significant. All the values in the figures represent means ±SEM of 4 cultures unless otherwise stated. *p<0.05, **p<0.01

[1] = system: EpiAirway cultures (normal human bronchial epithelial) cells; test: Mucociliary clearance: rate of movement of endogenous cell debris on EpiAirway cultures; type: cell-based
Method: EpiAirway cultures (normal human bronchial epithelial) cells grown on Millipore Transwells, 1 or 4.2 cm^2 surface area. The cells were purchased from MatTek, and were cultured at air-liquid interface for two (mucus synthesis and secretion) or three (mucociliary transport and mucus rheology) weeks prior to use. For mucociliary clearance, a stock guaifenesin solution of 2 mg/mL in culture medium was prepared in the morning of each experiment and kept cold until dilution into warmed medium to the target concentrations of 0.2, 2, 20 or 200 μg/mL. The medium in the basolateral compartment of each culture was replaced with the GGE-containing medium, and the cultures were returned to the 37° C., 5% CO2 incubator for as the times indicated. The experiments were repeated three times on independent cultures. Cultures (4.2 cm^2) were exposed to basolateral guaifenesin for 1 or 6 hr. […] The rate of movement of endogenous cell debris was analyzed on the video images using a transparent template overlay on the video images and a stopwatch to measure at least 5 particles on each culture, for a total of between 30 and 45 measurements per condition. For mucociliary clearance, differences between control and guaifenesin treatment groups were assessed by comparing the means using ANOVA, with a Bonferroni post-test to assess differences from the controls tested at the same time after treatment. […]

[2] = system: EpiAirway cultures (normal human bronchial epithelial) cells; test: Viability: metabolic activity by Water Soluble Tetrazolium (WST) assay; type: cell-based; conditions: 1 or 6 hr treatment
Method: EpiAirway cultures (normal human bronchial epithelial) cells grown on Millipore Transwells, 1 or 4.2 cm^2 surface area. The cells were purchased from MatTek, and were cultured at air-liquid interface for two (mucus synthesis and secretion) or three (mucociliary transport and mucus rheology) weeks prior to use.
The apical surfaces of the cultures were then washed with PBS and the metabolic activity, an indicator of viability, was measured using the Water Soluble Tetrazolium (WST) assay (Boehringer).
Metabolic activity was assessed using the WST assay, separately added to the apical or basal surfaces of the cultures.

apical mucus secretions = test: Rheologic measurements of apical mucus secretions from EpiAirway cultures; type: cell-based, human
Method: EpiAirway cultures (normal human bronchial epithelial) cells grown on Millipore Transwells, 1 or 4.2 cm^2 surface area. The cells were purchased from MatTek, and were cultured at air-liquid interface for two (mucus synthesis and secretion) or three (mucociliary transport and mucus rheology) weeks prior to use. Following the analysis of clearance, mucus was harvested from the apical surface of the cultures, without dilution. The rheological properties of apical mucus secretions (20 μL) were measured using an AR1000 controlled stress rheometer (TA Instruments, New Castle, Del.) using a parallel plate geometry. The dynamic linear viscoelastic behavior was determined from the strain response to an oscillating stress and reported as a storage or elastic modulus (G′), and loss or viscous (G″) modulus, as a function of frequency ω such that viscosity, η′=G″/ω. Rheologic data can also be presented using vectorial notation as tangent δ which is the ratio of viscosity to elasticity and G*, the vector sum of viscosity and elasticity (mechanical impedance). When stress in the linear range is used to evaluate the materials, the material properties are independent of stress. In order to conduct a frequency sweep from 0.1 to 1000 rad/s, viscoelasticity was evaluated using a creep test at 0.5 Pa for 2 minutes. The strain response was fitted to a discrete relaxation spectrum, transformed to the retardation spectrum, and then to the storage and loss moduli, as a function of frequency, using methods developed by the PI. The linear viscoelasticity was evaluated at 1 and 100 rad/s and an oscillatory stress sweep and steady shear flow experiments were used to evaluate the behavior in the non-linear ranges. The oscillatory sweep data were analyzed by observing the stress where G′ and G″ crossed. […] All rheologic measurements were made by technicians who were blinded to the treatment group origin. For rheology experiments, data were analyzed using the StatView™ 5 statistics package. Raw data were visually confirmed to be normally distributed about the mean. […]

[3] = 24 hour treatment, 2 μg/mL or 20 μg/mL

COc1ccccc1OCC(O)CO (centres unmarked) [guaifenesin, 3-(2-methoxyphenoxy)-1,2-propanediol]
secreted MUC5AC versus control (MUC5AC mucins; 30 min treatment, 0.2, 2, 20 μg/mL): no significant difference
total amounts of mucins produced (MUC5AC mucins; 6 hour treatment, 2 μg/ml and 20 μg/ml): significantly (p<0.01) suppressed; also recorded: suppressed the production of mucins
amounts of mucins released (MUC5AC mucins; 6 hours treatment, NHBE cells): did not affect
mucin production (MUC5AC mucins; [3]): significantly suppressed; also recorded: suppressed the production of mucins
mucin release (MUC5AC mucins; [3]): significantly suppressed; also recorded: significant (p<0.05) decrease in mucin release
amount of mucin released (MUC5AC mucins; 48 hours treatment): did not seem to be significantly affected
production of mucins (MUC5AC mucins; 48 hours treatment, 2 μg/mL and 20 μg/mL): significantly (p<0.01) suppressed; also recorded: suppressed the production of mucins
mucociliary clearance (mobility of cellular debris on culture surface) ([1]; 1 hr treatment, only 2 μg/ml statistically significant, little dose-response): appeared to increase the mobility of the cellular debris
mucociliary clearance (movement of surface material) ([1]; 6 hr treatment, all three concentrations tested, strong trend to a dose response): significantly faster than the control
viability of the cells (WST assay) [2]: no adverse effect on the viability
metabolic activity (WST assay) ([2]; did not reach statistical significance): trend to increased metabolic activity
viscosity, elasticity and complex modulus (G*) of mucus (apical mucus secretions; 1 rad/s (ciliary frequency), 1 hour, p<0.05): dose-dependent decrease
viscosity, elasticity and complex modulus (G*) of mucus (apical mucus secretions; 1 rad/s (ciliary frequency), 6 hours, p<0.01): dose-dependent decrease
viscosity, elasticity and complex modulus (G*) of mucus (apical mucus secretions; 100 rad/s (corresponding to cough)): not significantly

Source: patent US20170196821A1, “Method of Inhibiting Mucin Secretion” (Reckitt Benckiser LLC, priority 2009, published 2017)
